Common to all, as to type: in vivo
In assay [1] the test system is diamond backmoth (Plutella xylostera). As to the kind of experiment: Insecticidal effect on larvae of diamond backmoth (cabbage leaf dip). The settings on record: 500 ppm; cabbage leaf immersed 1 minute; third-instar larvae; fourth day; 25° C. The protocol: Insecticidal Effect on Larvae of Diamond Backmoth (Plutella xylostera) The present insecticide prepared according to the Preparation Example was diluted with water. A piece (diameter: 6 cm) of a cabbage leaf was immersed in the diluted insecticide for 1 minute. After air drying, the piece was placed in a plastic cup (inner diameter: 7 cm). 5 third-instar larvae of diamond backmoth (Plutella xylostera) were put in the cup (1 concentration, repetition: twice). The cup was kept in a constant temperature room at 25° C. On the fourth day, the survival rate and degree of writhing of the larvae were examined. The writhing larvae were each counted to be ½.

In assay [2] the test system is two-spotted red spiders (Tetranychus telarius). The assay is described as follows: Acaricidal effect on two-spotted red spiders, imago-killing rate, 500 ppm leaf immersion. Particulars: female imagoes on green bean leaf, leaf immersion about 5 seconds, concentration 500 ppm, fifth day after treatment, 25° C. Here is the method: (§1) Acaricidal Effect on Larvae of Two-Spotted Red Spiders (Tetranychus telarius): A stem of green bean seedling having only one primary left was placed in a test tube (capacity: 50 ml) containing water. 15 female imagoes of two-spotted red spiders were put on each leaf. One day after, the leaf having the two-spotted red spiders was immersed (about 5 seconds) in the present insecticide diluted with water, which had been prepared according to the Preparation Example, (concentration: 500 ppm, repetition: twice). They were kept in a constant-temperature room at 25° C. On the fifth day after the treatment, the female imagoes on the leaf of the green bean seedling were observed. The imago-killing rate (%) was determined on the basis of the results of the observation to obtain the results shown in Table 6.

Assay [3] has as its system eggs of two-spotted red spiders (Tetranychus telarius). As to the kind of experiment: Acaricidal effect on eggs of two-spotted red spiders, ovicidal rate, 500 ppm spray. The settings on record: eggs on green bean leaf disc; spray 3.5 ml; concentration 500 ppm; 8 days after treatment. The protocol:
Acaricidal Effect on Eggs of Two-Spotted Red Spiders (Tetranychus telarius) 5 female imagoes of two-spotted red spiders were released on a green been leaf disc (diameter: 3 cm). Then, the imagoes were left to lay eggs on the leaf disc for 20 hours and then removed therefrom. The present acaricide which had been prepared according to Preparation Example 1 was diluted with water to a predetermined concentration. 3.5 ml of the preparation thus obtained was sprayed with a rotary spraying column (Mizuho Rika) over the disc (concentration: 500 ppm, repetition: twice). 8 days after the treatment, the number of unhatched eggs was counted to determine the ovicidal rate (%).

Assay [4] concerns two-spotted red spiders (Tetranychus telarius). As to the kind of experiment: Acaricidal effect of a low concentration (12.5 ppm) on two-spotted red spiders. The settings on record: leaf immersion, female imagoes, fifth day after treatment, 25° C. The protocol: as §1, with “A” for “Acaricidal Effect on Larvae of Two-Spotted Red Spiders (Tetranychus telarius): A”
Acaricidal Effect of a Low Concentration of Acaricide on Larvae of Two-Spotted Red Spiders (Tetranychus telarius)
The same tests as those of Test Example 2 were repeated except that the concentration of the acaricide was changed to 12.5 ppm.

As to `COC=C(C(=O)OC)c1c(C#Cc2cc(C(F)(F)F)cc(C(F)(F)F)c2)c(C)nn1C` [Table 1-5, Methyl α-[1,3-dimethyl-4-{3,5-bis(trifluoromethyl)phenylethynyl}-5-pyrazole]-β-methoxyacrylate], the Killing rate in assay [1] came to 100%. Besides, the “Acaricidal rate (%)” value in assay [2] is given as 100%. Also, the “Ovicidal rate (%)” value in assay [3] stood at 100%. Further, the acaricidal effect in assay [4] was 100%.

Consider `CO/C=C(/C(=O)OC)c1c(C#Cc2cc(F)cc(Cl)c2)c(C)nn1C` [Table 1-7], for which the Killing rate in assay [1] is 80%. In addition, the “Acaricidal rate (%)” value in assay [2] was 100%. Further, the “Ovicidal rate (%)” value in assay [3] is on record as 100%. Besides, the acaricidal effect in assay [4] was 100%.

As for `CO/C=C(/C(=O)OC)c1c(C#Cc2cc(F)cc(F)c2)c(C)nn1C` [Table 1-8], the Killing rate in assay [1] was determined as 100%. In addition, the “Acaricidal rate (%)” value in assay [2] amounted to 100%. For the same compound, the “Ovicidal rate (%)” value in assay [3] came out at 100%. Further, the acaricidal effect in assay [4] is recorded as 100%.

`CO/C=C(/C(=O)OC)c1c(C#Cc2ccc(Oc3ccc(C(F)(F)F)cc3)cc2)c(C)nn1C` [Table 1-10]: in assay [1], the Killing rate was found to be 100%. Also, the “Acaricidal rate (%)” value in assay [2] was determined as 100%. Also, in assay [3], the “Ovicidal rate (%)” value was 100%. The same compound yielded an acaricidal effect in assay [4] of 100%.

`CO/C=C(/C(=O)OC)c1c(C#Cc2ccc(Oc3cc(C(F)(F)F)cc(C(F)(F)F)c3)cc2)c(C)nn1C` [Table 1-11]: the Killing rate in assay [1] is given as 100%. Moreover, the “Acaricidal rate (%)” value in assay [2] is 100%. In assay [3], the “Ovicidal rate (%)” value was found to be 100%. The same compound returned an acaricidal effect in assay [4] of 100%.

In the case of `CO/C=C(/C(=O)OC)c1c(C#Cc2ccc(Oc3ccc(F)cc3Cl)cc2)c(C)nn1C` [Table 1-12], the Killing rate in assay [1] stood at 100%. For the same compound, the “Acaricidal rate (%)” value in assay [2] is given as 100%. Further, in assay [3], the “Ovicidal rate (%)” value is recorded as 100%. In assay [4], this compound came in with an acaricidal effect of 100%.

In assay [1], `CCc1nn(C)c(/C(=C\OC)C(=O)OC)c1C#Cc1cc(C(F)(F)F)cc(C(F)(F)F)c1` [Table 1-14] gave a Killing rate of 74%. Moreover, the “Acaricidal rate (%)” value in assay [2] came to 100%. Besides, in assay [3], the “Ovicidal rate (%)” value stood at 100%. In assay [4], this compound returned an acaricidal effect of 100%.

Compound `CO/C=C(/C(=O)OC)c1c(C#Cc2cc(C(F)(F)F)cc(C(F)(F)F)c2)c(C(C)C)nn1C` [Table 1-17] showed a Killing rate in assay [1] of 89%. The “Acaricidal rate (%)” value in assay [2] was 100%. Moreover, the “Ovicidal rate (%)” value in assay [3] was found to be 100%. The acaricidal effect in assay [4] amounted to 100%.

As to `CCn1nc(C)c(C#Cc2cc(C(F)(F)F)cc(C(F)(F)F)c2)c1C(=COC)C(=O)OC` [Table 1-21, Methyl α-[1-ethyl-3-methyl-4-{3,5-bis(trifluoromethyl)phenylethynyl}-5-pyrazole]-β-methoxyacrylate], the Killing rate in assay [1] came out at 100%. The “Acaricidal rate (%)” value in assay [2] was found to be 100%. Also, the “Ovicidal rate (%)” value in assay [3] stood at 100%. The compound also came in with an acaricidal effect in assay [4] of 100%.

Take `CCn1nc(C)c(C#Cc2cc(C(F)(F)F)cc(C(F)(F)F)c2)c1/C(=C/OC)C(=O)OC` [Table 1-22]: the Killing rate in assay [1] stood at 90%. Moreover, in assay [2], the “Acaricidal rate (%)” value came out at 100%. Moreover, in assay [3], the “Ovicidal rate (%)” value stood at 100%. The acaricidal effect in assay [4] is given as 100%.

In the case of `CO/C=C(/C(=O)OC)c1c(C#Cc2ccc(OC(F)(F)F)cc2)c(C)nn1C` [Table 1-29], the Killing rate in assay [1] was 85%. Also, the “Acaricidal rate (%)” value in assay [2] is 100%. In addition, in assay [3], the “Ovicidal rate (%)” value was 100%. Moreover, the acaricidal effect in assay [4] amounted to 100%.

Take `CO/C=C(/C(=O)OC)c1c(OCc2cc(C(F)(F)F)cc(C(F)(F)F)c2)c(C)nn1C` [Table 2-1]: the Killing rate in assay [1] worked out at 87%. Moreover, in assay [2], the “Acaricidal rate (%)” value turned out to be 100%. Also, the “Ovicidal rate (%)” value in assay [3] is on record as 100%. Besides, the acaricidal effect in assay [4] worked out at 100%.

Values taken from US20020156115A1, “Insecticidal and acaricidal composition, and methods of using the same” (AGRO-KANESHO CO., LTD., priority 1999, published 2002).
